Source: US20100311714A1, “1H-IMIDAZO[4,5-c]QUINOLINONE COMPOUNDS” (priority 2009, published 2010)
In brackets after ≈: the same amount, converted by molar mass.

How the values were obtained:
[1] = test system: PKB Ser473 phosphorylation in Rat1-myr-HA-p110 delta cells; assay: Reverse protein array, PKB Ser473 phosphorylation in Rat1-myr-HA-p110 delta cells; assay type: cell-based; conditions: Rattus norvegicus, 0.5 h, 30 minutes compound incubation, read-out: p-PKB/IC50_delta
Procedure: (§1) No. 15140-114) and 10 μg/ml Puromycine (Sigma, cat. No. P9620).
(§2) The Rat1-myr-HA-p110 alpha, beta and delta cells were trypsinized and counted with a CASY TT cell counter (Schärfe System GmbH, Reutlingen Germany). The cells were diluted in fresh DMEM complete medium and 3×10^4 cells/150 μl/well seeded in 96-well TPP-tissue culture plates (TPP, cat. No. 92096). The plates were incubated at 37° C. and 5% CO2 under humidified condition for at least 20 h. Compound of formula I working solutions were prepared freshly as serial 8 step dilutions (vol/vol) in DMSO on the day of the experiment. The working solutions were further diluted 1/500 in cell culture medium to get final compound concentrations of 10, 3.333, 1.111, 0.370, 0.123, 0.041, 0.014, 0.005 μM. The final DMSO concentration was kept constant at 0.2%. cell culture medium containing 0.2% DMSO was used as vehicle treatment control. Post incubation, the cells were treated with the serial compound dilution. 50 μl of the compound medium mixture was added to the wells containing cells and 150 μl DMEM medium and incubated for 30 minutes (37° C., 5% CO2). After 30 minutes of incubation, the medium mixture was quickly removed by aspiration. For cell lysis, a mixture of 10% CLB1 CeLyA lysis buffer (Zeptosens, cat. No. 9000), 90% CSBL1 CeLyA spotting buffer (Zeptosens, cat. No. 9020) was freshly prepared and supplemented with 1% Octyl β-D-glucopyranoside (SIGMA, cat. No. 08001-5G) and 1 mM Na-Orthovanadate (Sigma, cat No. S-6508). 50 μl of the described lysis buffer mix was added to each well, followed by 10 minutes of incubation on ice. After an additional freeze-thaw cycle, another 50 μl of the lysis buffer mix without Octyl β-D-glucopyranoside was added to the wells, and 90 μl of the cell lysate was transferred to a 96-well V-bottom plate (Fisher Scientific, cat. No. 6067Y), followed by a centrifugation step (5 min, 1500 rpm at 19° C. in an Eppendorf 5810R centrifuge) to remove the unlysed cell debris.
(§3) The samples were spotted onto ZeptoMARK® PWG protein microarray chips (Zeptosens, Witterswil, Switzerland) with the piezoelectric microdispense-based, non-contact Nano-Plotter 2.1 (GeSiM, Grosserkmannsdorf, Germany). Each sample was spotted at 4 different sample concentrations (d1=100%, d2=75%, d3=50%, d4=25%) by diluting the cell lysate with the corresponding volume of lysis buffer mix. After spotting the ZeptoMARK® protein microarrays, the chips are incubated for 1 hour at 37° C. To receive a uniform blocking result, the CeLyA blocking buffer BB1 (Zeptosens, cat. No. 9040) is administered via an ultrasonic nebulizer. After 20 minutes of blocking the chips are extensively rinsed with deionized water (Milli-Q quality, 18MΩ×cm) and dried in a nitrogen air flow.
(§4) After the sample spotting and blocking procedure, the ZeptoMARK® chips were transferred to the ZeptoCARRIER (Zeptosens, cat. No. 1100), whose six flow cells individually address the six arrays on a chip, and washed twice with 200 μl CAB1 CeLyA assay buffer (Zeptosens, cat. No. 9032). The assay buffer was then aspirated and each compartment incubated with 100 μl of the primary target antibody (pAkt Ser473; CST#9271) at RT over night. Post incubation, the primary antibody was removed, the arrays washed twice with CAB1 buffer and further incubated with 100 μl of Alexa fluor 647-labeled anti rabbit IgG Fab fragments (Invitrogen; #Z25305) for one hour at RT in the dark. After incubation, the arrays were washed twice with 200 μl CAB1 buffer. The fluorescence of the target-bound Fab fragments is read out on the ZeptoReader (Zeptosens, Witterswil, Switzerland) using a laser (excitation wavelength 635 nm) and a CCD camera. The fluorescence signal was assessed with exposure times of 1, 3, 5 and 10 seconds, depending on the intensity of the signal. The resulting four images taken per array are stored as 16-bit TIF files. […]

[2] = Parallel Artificial Membrane Permeability Assay (PAMPA) at pH 6.8; assay type: physicochemical
Source text: (§5) The physicochemical properties of relevance for the absorption of the compound, such as the solubility and the membrane permeability, especially at a pH close to neutral pH can be measured using the procedure as described by L. ZHOU et al. in JOURNAL OF PHARMACEUTICAL SCIENCES, VOL. 96, NO. 11, p. 3052-3071 (2007) for the solubility at pH 6.8 and the procedure as described by F. Wohnsland and B. Faller in Journal of Medicinal Chemistry Vol 44, p. 923-930 (2001) for the Parallel Artificial Membrane Permeability Assay (PAMPA) at pH 6.8.
The following permeability log Pe was measured for compound of formula (I) as exemplified below: […]

[3] = test system: PKB Ser473 phosphorylation in Rat1-myr-HA-p110 beta cells; assay: Reverse protein array, PKB Ser473 phosphorylation in Rat1-myr-HA-p110 beta cells; assay type: cell-based; conditions: Rattus norvegicus, 0.5 h, 30 minutes compound incubation, read-out: p-PKB/IC50_beta
Procedure: as §1, §2, §3, §4

[4] = test system: PKB Ser473 phosphorylation in Rat1-myr-HA-p110 alpha cells; assay: Reverse protein array, PKB Ser473 phosphorylation in Rat1-myr-HA-p110 alpha cells; assay type: cell-based; conditions: Rattus norvegicus, 0.5 h, 30 minutes compound incubation, read-out: p-PKB/IC50_alpha
Procedure: as §1, §2, §3, §4

[5] = High-throughput equilibrium solubility at pH 6.8; assay type: physicochemical; conditions: pH 6.8, aqueous buffer, thermodynamic from solid; read-out: HT-Eq Sol/pH 6.8
Source text: as §5

[6] = test system: S6 Ribosomal Protein phosphorylation Ser235/236 in TSC1 null mouse embryo fibroblast (MEF) cells; assay: Reverse protein array, S6 Ribosomal Protein phosphorylation in TSC1 null MEF cells; assay type: cell-based; conditions: 1 h, TSC1-/- MEFs, 60 minutes, read-out: p-S6 IC50
Procedure: TSC1−/− MEFs cells (provided by D. Kwiatkowski), were cultivated in Dulbecco's modified Eagle's medium (DMEM high Glucose, GIBCO, cat. No. 41956-039) supplemented with 10% heat inactivated fetal bovine calf serum (Amimed, cat. No. 2-01F16-I), 1% L-Glutamine (Invitrogen, cat. No. 25030-02), 1% penicillin-streptomycin (GIBCO, cat. No. 15140-114) at 37° C. in a 5% CO2 and 95% relative humidity atmosphere incubator.
The TSC1−/− cells were trypsinized and counted with a CASY TT cell counter (Schärfe System GmbH, Reutlingen Germany). The cells were diluted in fresh DMEM complete medium and 0.75×10^4 cells/150 μl/well seeded in 96-well TPP-tissue culture plates (TPP, cat. No. 92096). The plates were incubated at 37° C. and 5% CO2 under humidified condition for at least 20 h. Working solutions were prepared freshly as serial 8 step dilutions (vol/vol) in DMSO on the day of the experiment. The working solutions were further diluted 1/5000 in cell culture medium to get final compound concentrations of […]. The final DMSO concentration was kept constant at 0.02%. cell culture medium containing 0.02% DMSO was used as vehicle treatment control. Post incubation, the cells were treated with the serial compound dilution. 50 μl of the compound medium mixture was added to the wells containing cells and 150 μl DMEM medium and incubated for 60 minutes (37° C., 5% CO2). After 60 minutes of incubation, the medium mixture was quickly removed by aspiration. For cell lysis, a mixture of 10% CLB1 CeLyA lysis buffer (Zeptosens, cat. No. 9000), 90% CSBL1 CeLyA spotting buffer (Zeptosens, cat. No. 9020) was freshly prepared and supplemented with 1% Octyl β-D-glucopyranoside (SIGMA, cat. No. 08001-5G) and 1 mM Na-Orthovanadate (Sigma, cat No. S-6508). 50 μl of the described lysis buffer mix was added to each well, followed by 10 minutes of incubation on ice. After an additional freeze-thaw cycle, another 50 μl of the lysis buffer mix without Octyl β-D-glucopyranoside was added to the wells, and 90 μl of the cell lysate was transferred to a 96-well V-bottom plate (Fisher Scientific, cat. No. 6067Y), followed by a centrifugation step (5 min, 1500 rpm at 19° C. in an Eppendorf 5810R centrifuge) to remove the unlysed cell debris.
The spotting of the chips follows the previous described method.
The signal detection and the data analysis follows the previous described method using the pS6 ribosomal protein Ser235/236 (CST, cat. No. #2211) as a primary antibody.

Compound: Cc1cccnc1-n1c(=O)n(C)c2cnc3ccc(-c4cnc5[nH]ccc5c4)cc3c21 [Example 3.2, 3-Methyl-1-(3-methyl-pyridin-2-yl)-8-(1H-pyrrolo[2,3-b]pyridin-5-yl)-1,3-dihydro-imidazo[4,5-c]quinolin-2-one]
- IC50 [1]: 109 nM
- HT-perm/logPe pH6.8 [2]: −5.0
- IC50 [3]: 74.1 nM
- IC50 [4]: 58.5 nM
- solubility thermodynamic [5]: 14 µg/mL (≈ 34.4 µM)

Compound: COCCOc1cncc(-c2ccc3ncc4c(c3c2)n(-c2cccnc2C)c(=O)n4C)c1 [Example 2.17, 8-[5-(2-Methoxy-ethoxy)-pyridin-3-yl]-3-methyl-1-(2-methyl-pyridin-3-yl)-1,3-dihydro-imidazo[4,5-c]quinolin-2-one]
- IC50 [1]: 803 nM
- HT-perm/logPe pH6.8 [2]: −4.8
- IC50 [3]: 491 nM
- IC50 [4]: 85.6 nM
- solubility thermodynamic [5]: > 441 µg/mL

Compound: COc1nc(N2CCNCC2)ccc1-n1c(=O)n(C)c2cnc3ccc(-c4cnc5c(ccn5C)c4)cc3c21 [Example 9.3, 1-(2-Methoxy-6-piperazin-1-yl-pyridin-3-yl)-3-methyl-8-(1-methyl-1H-pyrrolo[2,3-b]pyridin-5-yl)-1,3-dihydro-imidazo[4,5-c]quinolin-2-one]
- IC50 [1]: 52.9 nM
- IC50 [3]: 9.39 nM
- IC50 [4]: 6.5 nM
- solubility thermodynamic [5]: 21 µg/mL (≈ 40.3 µM)

Compound: Cc1ccncc1-n1c(=O)n(C)c2cnc3ccc(-c4ccc(N(C)C)nc4)cc3c21 [Example 4.4, 8-(6-Dimethylamino-pyridin-3-yl)-3-methyl-1-(4-methyl-pyridin-3-yl)-1,3-dihydro-imidazo[4,5-c]quinolin-2-one]
- IC50 [1]: 894 nM
- HT-perm/logPe pH6.8 [2]: −3.8
- IC50 [3]: 300 nM
- IC50 [4]: 167 nM
- solubility thermodynamic [5]: 2 µg/mL (≈ 4.87 µM)

Compound: CNc1ncc(-c2ccc3ncc4c(c3c2)n(-c2ccc(OC)nc2Cl)c(=O)n4C)cn1 [Example 18.2, 1-(2-Chloro-6-methoxy-pyridin-3-yl)-3-methyl-8-(2-methylamino-pyrimidin-5-yl)-1,3-dihydro-imidazo[4,5-c]quinolin-2-one]
- IC50 [6]: 1 nM
- IC50 [1]: 12.2 nM
- HT-Perm logPe pH6.8 [2]: −3.5
- IC50 [3]: 7 nM
- IC50 [4]: 7.8 nM
- solubility thermodynamic [5]: 3 µg/mL (≈ 6.7 µM)
